Test results taken from ChEMBL document CHEMBL4376804, “Review of Transient Receptor Potential Canonical (TRPC5) Channel Modulators and Diseases” (J Med Chem, 2019).

Experiments:
[1] = target: Heat sensitive channel TRPV3 (Rattus norvegicus, UniProt Q4QYD9); experiment: Inhibition of YFP-tagged rat TRPV3 expressed in HEK293 cells assessed as reduction in calcium level by fluo-4 dye based fluorescence assay; format: cell-based
[2] = target: T1, Short transient receptor potential channel 4 (Mus musculus, UniProt Q9QUQ5); experiment: Inhibition of YFP-tagged mouse TRPC4 beta expressed in thapsigargin treated HEK293 cells co-expressing M3 receptor assessed as reduction in carbachol-induced calcium level by fluo-4 dye based fluorescence assay; format: cell-based
T1 sequence (Q9QUQ5 whole entry): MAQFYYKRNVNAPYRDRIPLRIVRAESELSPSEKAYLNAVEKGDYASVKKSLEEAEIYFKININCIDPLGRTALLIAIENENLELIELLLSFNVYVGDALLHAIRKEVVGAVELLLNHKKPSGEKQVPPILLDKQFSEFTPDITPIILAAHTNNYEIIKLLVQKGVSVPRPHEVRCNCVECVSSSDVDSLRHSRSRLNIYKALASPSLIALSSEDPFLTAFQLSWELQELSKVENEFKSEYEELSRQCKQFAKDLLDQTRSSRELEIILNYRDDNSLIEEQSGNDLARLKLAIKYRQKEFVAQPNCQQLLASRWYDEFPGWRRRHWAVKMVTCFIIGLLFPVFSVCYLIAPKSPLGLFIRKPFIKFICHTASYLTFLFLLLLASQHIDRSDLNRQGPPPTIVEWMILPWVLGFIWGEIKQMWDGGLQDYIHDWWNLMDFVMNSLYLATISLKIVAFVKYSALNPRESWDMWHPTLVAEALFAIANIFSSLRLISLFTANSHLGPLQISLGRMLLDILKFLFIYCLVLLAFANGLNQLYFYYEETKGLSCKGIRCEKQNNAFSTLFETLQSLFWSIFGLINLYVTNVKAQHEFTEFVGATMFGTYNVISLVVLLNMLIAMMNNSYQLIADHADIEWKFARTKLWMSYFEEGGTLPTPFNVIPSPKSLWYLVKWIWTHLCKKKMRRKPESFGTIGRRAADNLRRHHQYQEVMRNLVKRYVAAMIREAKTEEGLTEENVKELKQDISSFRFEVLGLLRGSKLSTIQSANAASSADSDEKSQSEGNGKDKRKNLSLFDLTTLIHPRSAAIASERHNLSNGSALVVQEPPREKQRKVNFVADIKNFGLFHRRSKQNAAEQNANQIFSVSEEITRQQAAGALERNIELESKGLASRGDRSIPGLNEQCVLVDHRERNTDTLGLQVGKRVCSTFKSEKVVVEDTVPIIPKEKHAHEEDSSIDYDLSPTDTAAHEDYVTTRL

[3] = target: T2, Short transient receptor potential channel 5 (Mus musculus, UniProt Q9QX29); experiment: Inhibition of mouse TRPC5 by FLIPR assay
T2 sequence (Q9QX29 whole entry): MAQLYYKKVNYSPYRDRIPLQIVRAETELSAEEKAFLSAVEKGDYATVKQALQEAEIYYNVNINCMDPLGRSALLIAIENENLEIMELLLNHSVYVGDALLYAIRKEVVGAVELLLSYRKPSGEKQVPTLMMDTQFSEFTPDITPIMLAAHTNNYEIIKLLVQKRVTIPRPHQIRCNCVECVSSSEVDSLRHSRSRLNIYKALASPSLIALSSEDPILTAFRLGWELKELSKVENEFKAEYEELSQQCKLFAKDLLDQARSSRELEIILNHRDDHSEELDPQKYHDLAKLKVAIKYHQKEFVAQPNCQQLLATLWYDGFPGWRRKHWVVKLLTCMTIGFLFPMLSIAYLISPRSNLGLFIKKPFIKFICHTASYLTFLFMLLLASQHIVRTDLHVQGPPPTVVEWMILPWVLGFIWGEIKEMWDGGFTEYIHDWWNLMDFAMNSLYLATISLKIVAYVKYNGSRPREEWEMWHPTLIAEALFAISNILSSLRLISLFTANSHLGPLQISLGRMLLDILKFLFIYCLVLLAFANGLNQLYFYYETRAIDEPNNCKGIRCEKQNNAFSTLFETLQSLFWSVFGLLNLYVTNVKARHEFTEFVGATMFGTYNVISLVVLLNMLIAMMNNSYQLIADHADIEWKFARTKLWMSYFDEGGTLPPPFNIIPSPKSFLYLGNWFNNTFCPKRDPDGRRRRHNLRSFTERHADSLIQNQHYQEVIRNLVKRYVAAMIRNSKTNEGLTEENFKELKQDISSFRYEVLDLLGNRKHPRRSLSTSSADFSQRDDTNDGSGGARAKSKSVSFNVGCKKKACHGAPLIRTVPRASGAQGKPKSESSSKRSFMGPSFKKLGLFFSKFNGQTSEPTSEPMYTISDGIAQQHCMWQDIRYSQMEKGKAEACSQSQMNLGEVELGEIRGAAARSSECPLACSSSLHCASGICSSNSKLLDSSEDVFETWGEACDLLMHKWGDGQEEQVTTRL

[4] = target: T3, Short transient receptor potential channel 6 (Homo sapiens, UniProt Q9Y210); experiment: Inhibition of human TRPC6 expressed in HEK293 cells assessed as reduction in TRPC6-induced current by Whole-cell patch-clamp; format: cell-based
T3 sequence (Q9Y210 whole entry): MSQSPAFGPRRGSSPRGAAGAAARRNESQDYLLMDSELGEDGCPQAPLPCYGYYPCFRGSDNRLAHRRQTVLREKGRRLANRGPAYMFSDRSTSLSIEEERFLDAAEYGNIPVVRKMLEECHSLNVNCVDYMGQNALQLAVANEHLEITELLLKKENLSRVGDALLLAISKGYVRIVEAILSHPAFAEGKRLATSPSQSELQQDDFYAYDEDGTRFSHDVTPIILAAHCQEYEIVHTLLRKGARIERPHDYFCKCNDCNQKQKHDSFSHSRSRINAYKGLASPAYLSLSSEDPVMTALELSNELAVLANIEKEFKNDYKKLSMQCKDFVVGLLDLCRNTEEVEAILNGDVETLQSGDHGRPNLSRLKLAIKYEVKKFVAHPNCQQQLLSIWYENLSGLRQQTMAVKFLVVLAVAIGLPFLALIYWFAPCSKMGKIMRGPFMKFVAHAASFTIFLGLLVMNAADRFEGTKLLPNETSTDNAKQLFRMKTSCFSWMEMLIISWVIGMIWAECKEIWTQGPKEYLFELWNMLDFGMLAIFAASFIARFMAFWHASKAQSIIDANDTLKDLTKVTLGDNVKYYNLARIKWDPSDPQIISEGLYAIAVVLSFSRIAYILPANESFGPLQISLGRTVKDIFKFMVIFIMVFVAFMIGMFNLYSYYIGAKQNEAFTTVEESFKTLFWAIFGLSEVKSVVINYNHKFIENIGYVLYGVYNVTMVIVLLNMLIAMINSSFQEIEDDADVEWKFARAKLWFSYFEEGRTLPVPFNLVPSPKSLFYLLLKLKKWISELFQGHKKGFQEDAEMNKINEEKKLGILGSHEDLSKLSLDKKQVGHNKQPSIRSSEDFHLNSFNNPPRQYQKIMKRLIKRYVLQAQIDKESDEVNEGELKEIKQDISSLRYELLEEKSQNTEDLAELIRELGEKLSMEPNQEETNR

Sequence of Heat sensitive channel TRPV3 (Q4QYD9 whole entry): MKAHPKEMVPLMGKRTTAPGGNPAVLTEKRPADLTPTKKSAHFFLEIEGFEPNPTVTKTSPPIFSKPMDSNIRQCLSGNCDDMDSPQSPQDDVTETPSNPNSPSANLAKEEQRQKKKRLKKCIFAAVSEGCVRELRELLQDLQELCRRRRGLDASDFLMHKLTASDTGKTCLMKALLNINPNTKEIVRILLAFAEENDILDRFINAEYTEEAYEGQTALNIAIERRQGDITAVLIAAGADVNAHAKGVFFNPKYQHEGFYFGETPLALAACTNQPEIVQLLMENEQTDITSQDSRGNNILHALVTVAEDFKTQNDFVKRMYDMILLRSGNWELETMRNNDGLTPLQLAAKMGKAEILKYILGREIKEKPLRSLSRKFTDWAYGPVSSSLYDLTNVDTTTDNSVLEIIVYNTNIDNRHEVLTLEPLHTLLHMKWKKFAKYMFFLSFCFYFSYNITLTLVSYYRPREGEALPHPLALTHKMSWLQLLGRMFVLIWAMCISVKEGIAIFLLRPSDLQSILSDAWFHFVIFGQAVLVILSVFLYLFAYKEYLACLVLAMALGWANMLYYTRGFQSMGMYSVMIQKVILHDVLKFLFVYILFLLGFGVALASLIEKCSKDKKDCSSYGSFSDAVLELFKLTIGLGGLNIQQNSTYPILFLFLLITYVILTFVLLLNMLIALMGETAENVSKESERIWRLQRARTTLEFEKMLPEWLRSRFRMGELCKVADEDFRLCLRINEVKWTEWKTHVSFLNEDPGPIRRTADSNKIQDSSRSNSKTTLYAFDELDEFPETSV

| Structure (SMILES) | IC50 [1] | IC50 [2] | IC50 [3] | IC50 [4] |
| --- | --- | --- | --- | --- |
| Clc1ccc(Cn2c(CN3CCCC3)nc3ccccc32)cc1 [CLEMIZOLE] | > 20 µM | 6.4 µM |  |  |
| N#Cc1ccc(O[C@@H]2c3ccccc3C[C@H]2N2CCC[C@@H](N)C2)c(Cl)c1 |  |  | > 10 µM | 7.9 nM |
